{"source": "patent US20140272000A1", "about": "“Liquids and Foodstuffs Containing beta-hydroxy-beta-methylbutyrate (HMB) in the Free Acid Form and Methods of Manufacturing or Producing the Same” (Metabolic Technologies, Inc., priority 2013, published 2014)", "type_in_all_cases": "physicochemical", "key": {"[1]": {"assay": "Long term stability (appearance) in soluble-protein drinks", "settings": "42 days; ISOPURE protein drink, GNC protein juice, Gatorade Recover, Spartos protein water; 250 mg CaHMB or 200 mg HMB FA in 40 ml", "method": "• 1. Rinse 12 glass bottles with ethanol and let air dry overnight. • 2. Label the glass bottles A1-A3, B1-B3, C1-C3 and D1-D3. The labels correspond to the following conditions:\n• 3. To bottles A2-D2 CaHMB MTI 1208-100-02 TSI 12070630 was used. • 4. To bottles A3-D3 HMB Free Acid MTI 1103-100-09 Lot 11010084 was used. • 5. Add 40 ml of ISOPURE protein drink to A1-A3, 40 ml of GNC protein juice to B1-B3, 40 ml Gatorade Recover to C1-C3, and 40 ml Spartos protein water to D1-D3. • 6. Flush with nitrogen and seal the bottles with rubber caps and metal clamp caps. • 7. Mix well. • 8. Take photo of bottles A1-A3, B1-B3, C1-C3, and D1-D3 every Friday. The photos appear in FIG. 2a-2d. The following tables 6-9 provide the nutritional information for each of the liquids tested (ISOPURE, GNC Protein Juice, Gatorade G3-Recover, and Spartos protein water.)"}, "[2]": {"assay": "General observation on addition of HMB forms to liquids"}, "[3]": {"assay": "Stability of product composition (physical appearance) with the addition of HMB, free acid and calcium salt forms", "settings": "Ensure Clear, two flavors, 1 g CaHMB or 0.8 g HMB free acid in 40 ml", "method": "• 1. N=2 (Two flavors of a commercially available ready-to-drink soluble-protein product; Ensure Clear, pH approximately 2.74) • 2. Label the glass bottles A1-A3 and B1-B3. The labels correspond to the following conditions:\n• 3. To bottles A2 and B2 1 g of CaHMB MTI 1208-100-02 TSI 12070630 added. • 4. To bottles A3 and B3 0.8 g of HMB Free Acid MTI 1103-100-09 Lot 11010084 added. • 5. 40 ml of Peach flavored product added to the bottles labeled A1-A3. • 6. 40 ml of Blueberry Pomegranate flavored product added to the bottles labeled B1-B3. • 7. Bottles were sealed with rubber caps and crimped shut. Then, they were mixed well and placed on shelf. • 8. Appearances were noted and photos were taken daily (bottles were not disturbed).\nTable 2 reports the physical appearance of the ready-to-drink soluble-protein product (n=2) following the addition of CaHMB or HMB free acid and mixing. HMB was not added to the control bottles. Day 1 was recorded after initial mixing."}, "[4]": {"assay": "Stability of HMB-acid at various concentrations in soluble protein (ISOPURE protein drink) over 120 days, HPLC", "method": "This experiment was designed to observe the stability of HMB-acid at various concentrations in soluble protein over 120 days.\nTo analyze the stability of HMB free acid in the soluble protein (ISOPURE protein drink, Natures Best®, Hauppauge, N.Y.), different concentrations of HMB free acid were added to the recommended serving size of ISOPURE protein drink. The three concentrations were 300 mg/240 ml, 1000 mg/240 ml, and 3000 mg/240 ml. HMB free acid was measured for each solution using HPLC at 5 different time points: 0, 30, 60, 90, and 120 d. HMB free acid used was MTI 1301-100-03 (Lot 120111036). ISOPURE protein drink used was Lot 1212111132310. ISOPURE protein drink has a pH of approximately 2.54. All glassware and supplies used were autoclaved in preparation of the three different concentrations of HMB free acid in ISOPURE protein drink for the 5 different time points. Materials to be autoclaved were as follows: glass bottles, rubber and metal seals, pipette tips, and graduated cylinder. Autoclave Method #1 for dry goods in Building 3 of ISU Research Park was used.\n• For bottles in group A, 60 mg of HMBFA into each of the five bottles was added, and then 48 ml of ISOPURE protein drink was added. The HMBFA concentration was 1.25 mg/ml. • For bottles in group B 200 mg of HMBFA into each of the five bottles was added, and then 48 ml of ISOPURE protein drink was added. The HMBFA concentration was 4.16 mg/ml. • For bottles in group C, 600 mg of HMBFA into each of the five bottles was, and then 48 ml of ISOPURE protein drink was added.\nEach sample bottle was flushed with nitrogen and then the top of the bottle was sealed with rubber caps, crimped shut and mix well. • One bottle of each concentration was tested for HMB using SOP 113-04 HMB (modified standard curve), at Time 0, 30, 60, 90, and 120 d.\nTo prepare the samples for testing, 0.5 ml of the sample was transferred to a microcentrifuge tube in quadruplet. Then 0.25 ml of KIV internal standard added to standards and three of each sample set. Finally, 0.25 ml 0.2M phosphate buffer was added to the three samples with KIV internal standard and 0.5 ml 0.2M phosphate buffer to the samples not containing KIV.\nThe samples were considered stable with a ±5% of expected change HMB concentration over the four months with an allowable ±3% analytical variation. A linear regression was conducted on the data as a secondary measure of stability."}, "[5]": {"settings": "Day 1 (after initial mixing), pH approximately 2.74"}}, "data": [{"smiles": "CC(C)(O)CC(=O)[O-].CC(C)(O)CC(=O)[O-].[Ca+2]", "note": "[CaHMB, reference compound]", "values": [{"measurement": "Appearance of the liquids", "setting": "[1]", "result": "cloudy and contain precipitate"}, {"measurement": "Changes in the physical appearance on addition", "setting": "[2]; commercially available soluble-protein containing ready-to-drink products", "result": "sedimentation and clumping"}, {"measurement": "Physical appearance", "setting": "[3]; [5]", "result": "Cloudy"}, {"measurement": "Physical appearance", "setting": "[3]; Day 7, bottles not disturbed", "result": "Defined Separation"}, {"measurement": "Physical appearance", "setting": "[3]; Day 14, bottles not disturbed", "result": "Defined Separation w/Particulates"}, {"measurement": "Physical appearance", "setting": "[3]; Day 21, bottles not disturbed", "result": "Defined Separation w/Particulates"}]}, {"smiles": "CC(C)(O)CC(=O)O", "note": "[HMB free acid, β-Hydroxy-β-methylbutyrate]", "values": [{"measurement": "Decrease in HMB free acid, of the expected amount", "setting": "[4]; 300 mg/serving of soluble protein, 120 days (FIG. 3)", "result": "less than 8%"}, {"measurement": "Linear decrease over time (linear regression)", "setting": "[4]; 300 mg/serving, 120 days, p<0.05", "result": "no significant linear decrease"}, {"measurement": "Decrease in HMB free acid, of the expected amount", "setting": "[4]; 1000 mg/serving of soluble protein, 120 days (FIG. 4)", "result": "less than 8%"}, {"measurement": "Linear decrease over time (linear regression)", "setting": "[4]; 1000 mg/serving, 120 days, p<0.05", "result": "no significant linear decrease"}, {"measurement": "Decrease in HMB free acid, of the expected amount", "setting": "[4]; 3000 mg/serving of soluble protein, 120 days (FIG. 5)", "result": "less than 8%"}, {"measurement": "Linear decrease over time (linear regression)", "setting": "[4]; 3000 mg/serving, 120 days, p<0.05", "result": "no significant linear decrease"}, {"measurement": "Stability in a drink containing soluble protein", "setting": "[4]; room temperature, 120 days", "result": "remaining stable"}, {"measurement": "Changes in HMB concentration over time", "setting": "[4]; three concentrations (300, 1000, 3000 mg/serving) in ISOPURE, 120 d", "result": "less than 8.0%"}, {"measurement": "Linear decrease over time (linear regression)", "setting": "[4]; three concentrations in ISOPURE, 120 d, p>0.05", "result": "no significant linear decrease"}, {"measurement": "Appearance of the liquids", "setting": "[1]", "result": "clear and precipitate-free"}, {"measurement": "Going into solution when added to a liquid", "setting": "[2]; added to a liquid, slight shaking", "result": "goes into solution almost instantly"}, {"measurement": "Physical appearance", "setting": "[3]; [5]", "result": "Semi-Clear"}, {"measurement": "Physical appearance", "setting": "[3]; Day 7, bottles not disturbed", "result": "Semi-Clear"}, {"measurement": "Physical appearance", "setting": "[3]; Day 14, bottles not disturbed", "result": "Semi-Clear"}, {"measurement": "Physical appearance", "setting": "[3]; Day 21, bottles not disturbed", "result": "Semi-Clear"}]}]}
